Laboratory results: patent US20120028988A1, “USE OF PYRIDAZINONE COMPOUND FOR CONTROL OF HARMFUL ARTHROPOD PESTS” (SUMITOMO CHEMICAL COMPANY, LIMITED, priority 2009, published 2012)

system: Blattalla germanica; experiment: Test Example 6: treated filter paper with sucrose, Blattalla germanica male adults, mortality index; type: in vivo; details: 500 ppm active ingredient, 0.7 mL on filter paper with sucrose; 2 male adults; after 6 days
Experimental: (§1) The preparation of the present composition obtained by Preparation Example 14 was diluted with water so as to have a concentration of active ingredient of 500 ppm, to prepare a drug solution for test.
A filter paper with a diameter of 5.5 cm was placed in the bottom of a polyethylene cup, then 0.7 mL of the above drug solution for test was added dropwise on the filter paper, and 30 mg of sucrose was uniformly added as a feed. 2 male adults of Blattalla germanica were released in the polyethylene cup, and the lid was closed. The number of dead insects was calculated after 6 days.
The mortality was calculated by the following equation and was evaluated by the indexes of 4: mortality 100%, 2:50%, and 0:0%.
Mortality (%)=(Number of Dead Insects/Number of Test Insects)×100

SMILES | index (mortality)
CCc1ccccc1-c1c(OC(=O)c2ccccc2)cnn(C)c1=O [I-b-1, 5-benzoyloxy-4-(2-ethylphenyl)-2-methyl-3(2H)-pyridazinone] | 4 (mortality 100%)

system: Frankliniella occidentalis; experiment: Test Example 10: spray on cucumber, Frankliniella occidentalis larvae on cut leaves, preventive value; type: in vivo; details: 500 ppm active ingredient, 10 mL/cup sprayed on cucumber; larvae on cut first true leaves; after 7 days
Experimental: The drug solution for test was sprayed at a rate of 10 mL/cup on cucumber at the second true leaf-expansion stage planted in a polyethylene cup. After the drug solution dried, the first true leaves were cut out and placed in a polyethylene cup, then 20 larvae of Frankliniella occidentalis were released, and the lid was closed. After 7 days, the number of surviving larvae on the leaves of cucumber was investigated, and the preventive value was calculated by the following equation. Preventive Value (%)={1−(Cb×Tai)/(Cai×Tb)}×100 Here, the letters in the equation represent the following meaning. Cb: Number of Insects in Untreated Area Before Treatment Cai: Number of Insects in Untreated Area at Observation Tb: Number of Insects in Treated Area Before Treatment Tai: Number of Insects in Treated Area at Observation

SMILES | preventive value
Cc1ccc(-c2ccc(Cl)cc2)cc1-c1c(O)c(C)nn(C)c1=O [I-a-40] | ≥ 90%

system: Spodoptera litura; experiment: whole plant or invertebrate; type: in vivo; details: 144 h, 500 ppm active ingredient, 20 mL/cup sprayed on Brassicae oleracea, fourth-stage larvae, 25° C., after 6 days, read-out: mortality of the insects
Experimental: as §1
The drug solution for test was sprayed at a rate of 20 mL/cup on Brassicae oleracea at the 5 to 6 leaf stages planted in a polyethylene cup. After the drug solution dried, 10 fourth-stage larvae of Spodoptera litura were released. Brassicae oleracea at the 5 to 6 leaf stage planted in this polyethylene cup was covered with an another polyethylene cup (volume of 400 mL). This was stored at 25° C., and the number of surviving insects was counted after 6 days, then the mortality of the insects was calculated by the following equation.
(§2) Mortality of Insects (%)=(Number of Dead Insects/Number of Test Insects)×100

SMILES | mortality at 500 ppm
Cc1ccc(-c2ccc(Cl)cc2)cc1-c1c(O)cnn(C)c1=O [I-a-59, 4-[5-(4-chlorophenyl)-2-methylphenyl]-5-hydroxy-2-methyl-3(2H)-pyridazinone] | ≥ 80%

system: Plutella xylostella; experiment: whole plant or invertebrate; type: in vivo; details: 120 h, 500 ppm active ingredient, 20 mL/cup sprayed on Brassicae oleracea, second-stage larvae, 25° C., after 5 days, read-out: mortality of the insects
Experimental: as §1
The drug solution for test was sprayed at a rate of 20 mL/cup on Brassicae oleracea at the 3 leaf stage planted in a polyethylene cup. After the drug solution dried, leaves and stems were cut out and placed in a 50 mL cup. 5 second-stage larvae of Plutella xylostella were released there, and the lid was closed. This cup was stored at 25° C., and the number of surviving insects was counted after 5 days, and the mortality of the insects was calculated by the following equation.
as §2

SMILES | mortality at 500 ppm
Cc1ccc(-c2ccc(F)cc2)cc1-c1c(O)c(C)nn(C)c1=O [I-a-46, 4-[5-(4-fluorophenyl)-2-methylphenyl]-5-hydroxy-2,6-dimethyl-3(2 H)-pyridazinone] | ≥ 80%
Cc1ccc(-c2ccc(Cl)cc2)cc1-c1c(O)cnn(C)c1=O [I-a-59, 4-[5-(4-chlorophenyl)-2-methylphenyl]-5-hydroxy-2-methyl-3(2H)-pyridazinone] | ≥ 80%

system: not given; experiment: not given; details: not given

SMILES | melting point
C#Cc1cc(C)cc(C)c1-c1c(O)c(C)nn(C)c1=O [I-a-44, 4-(2-ethynyl-4,6-dimethylphenyl)-5-hydroxy-2,6-dimethyl-3(2H)-pyridazinone] | 179 to 181 °C
Cc1ccc(Br)cc1-c1c(O)c(C)nn(C)c1=O [I-a-45, 4-(5-bromo-2-methylphenyl)-5-hydroxy-2,6-dimethyl-3(2H)-pyridazinone] | 217 to 218 °C
CCc1cc(C)c(Br)c(CC)c1-c1c(O)c(C)nn(C)c1=O [I-a-47, 4-(3-bromo-2,6-diethyl-4-methylphenyl)-5-hydroxy-2,6-dimethyl-3(2H)-pyridazinone] | 235 to 236 °C
CCc1cc(C)c(-c2ccc(Cl)cc2)c(CC)c1-c1c(O)c(C)nn(C)c1=O [I-a-48, 4-[3-(4-chlorophenyl)-2,6-diethyl-4-methylphenyl)-5-hydroxy-2,6-dimethyl-3(2H)-pyridazinone] | 248 to 250 °C
CCc1cc(CC)c(-c2c(O)c(C)nn(C)c2=O)c(CC)c1Cl [I-a-49, 4-(3-chloro-2,4,6-triethylphenyl)-5-hydroxy-2,6-dimethyl-3(2H)-pyridazinone] | 225 to 226 °C
CCc1cc(CC)c(-c2c(O)c(C)nn(C)c2=O)c(CC)c1Br [I-a-50, 4-(3-bromo-2,4,6-triethylphenyl)-5-hydroxy-2,6-dimethyl-3(2H)-pyridazinone] | 225 to 226 °C
CCc1c(Cl)c(CC)c(-c2c(O)c(C)nn(C)c2=O)c(CC)c1Cl [I-a-71, 4-(3,5-dichloro-2,4,6-triethylphenyl)-5-hydroxy-2,6-dimethyl-3(2H)-pyridazinone] | 266 to 267 °C
CCc1cc(CC)c(-c2c(O)c(C)nn(C)c2=O)c(CC)c1I [I-a-72, 5-hydroxy-2,6-dimethyl-4-(2,4,6-triethyl-3-iodophenyl)-3(2H)-pyridazinone] | 217 to 219 °C
CCc1cc(C)c(F)c(CC)c1-c1c(O)c(C)nn(C)c1=O [I-a-74, 4-(2,6-diethyl-3-fluoro-4-methylphenyl)-5-hydroxy-2,6-dimethyl-3(2H)-pyridazinone] | 193 to 195 °C
CCc1cc(C)c(Br)c(CC)c1-c1c(OC(=O)OC)c(C)nn(C)c1=O [I-b-50, 4-(3-bromo-2,6-diethyl-4-methylphenyl)-5-methoxycarbonyloxy-2,6-dimethyl-3(2H)-pyridazinone] | 113 to 115 °C
